The values below come from patent US5321041A, “Diphenylpyrrolylfuran derivatives” (Nihon Iyakuhin Kogyo Co., Ltd., priority 1992, dated 1994).

Like-named read-outs stand apart in the source and are kept apart here.

Data set [1] concerns lipid peroxidation (crude homogenate prepared from brain tissues of Wistar rats). Put plainly: Inhibitory activity on lipid peroxidation (anti-oxidation activity). In kind it is biochemical. Conditions: rat brain homogenate, 37° C., 30 minutes; malondialdehyde, 532 nm. The method, then:
EXPERIMENT 1: INHIBITORY ACTIVITY ON LIPID PEROXIDATION (ANTI-OXIDATION ACTIVITY)
The captioned activity was evaluated according to the method described by Kakihana et al., Nihon Yakurigaku Zasshi (Folia Pharmacologica Japonica), 80, p. 225, 1982. To a 1 ml of a crude homogenate prepared from brain tissues of Wistar rats, 10 μl of a solution of test drug in dimethyl sulfoxide was added, and after pre-incubation under ice-cooling for 10 minutes, the mixture was subjected to a reaction at 37° C. for 30 minutes. The reaction was stopped by adding 200 μl of 35% perchloric acid to the mixture and then the mixture was centrifuged. To a 1 ml of the supernatant obtained, 0.5 ml of 0.5% thiobarbituric acid was added and the mixture was heated under a boiling water bath for 15 minutes. The mixture was cooled to room temperature and absorbance of the mixture at 532 nm was measured. The inhibitory rate was obtained using the amount of malondialdehyde generated by the solvent-treated control, which equals to 100%, and 50% median inhibitory concentration (IC50) was calculated according to the probit method as indexes of anti-oxidation activity.

The next data set concerns the target T1, 5-lipoxygenase (Cavia porcellus, UniProt A0A286X958).
T1 construct: crude enzyme fraction prepared from peritoneal exudated cells of guinea pigs; endogenous in cells; host or cells: guinea pig peritoneal exudate cells (induced by intraperitoneal casein), crude enzyme fraction
T1 sequence (A0A286X958 1-674): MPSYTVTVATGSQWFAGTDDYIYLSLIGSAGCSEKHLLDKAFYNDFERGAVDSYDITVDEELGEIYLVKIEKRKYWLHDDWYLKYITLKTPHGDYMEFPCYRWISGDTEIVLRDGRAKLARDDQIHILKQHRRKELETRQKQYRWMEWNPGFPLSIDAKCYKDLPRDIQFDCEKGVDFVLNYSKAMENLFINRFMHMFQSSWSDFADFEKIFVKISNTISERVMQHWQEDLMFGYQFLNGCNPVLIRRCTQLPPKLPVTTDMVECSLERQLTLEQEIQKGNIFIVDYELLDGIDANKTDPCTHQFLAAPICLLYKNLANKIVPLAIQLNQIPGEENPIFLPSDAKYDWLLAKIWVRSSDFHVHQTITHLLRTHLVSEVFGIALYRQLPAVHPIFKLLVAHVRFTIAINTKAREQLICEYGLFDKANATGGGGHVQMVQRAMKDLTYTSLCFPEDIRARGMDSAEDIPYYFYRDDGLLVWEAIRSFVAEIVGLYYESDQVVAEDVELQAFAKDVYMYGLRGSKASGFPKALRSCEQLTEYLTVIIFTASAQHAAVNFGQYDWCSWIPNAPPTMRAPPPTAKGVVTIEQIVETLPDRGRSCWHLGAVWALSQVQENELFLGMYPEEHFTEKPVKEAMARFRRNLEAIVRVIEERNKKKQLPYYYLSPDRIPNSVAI
Put plainly: Inhibitory activity on 5-lipoxygenase. In kind it is biochemical, guinea pigs. Conditions: 5-HETE generation, 20 μM 14C-arachidonic acid, pH 7.4, 37° C., 10 minutes. On the procedure:
EXPERIMENT 2: INHIBITORY ACTIVITY ON 5-LIPOXYGENASE
5-Lipoxygenase activity was determined according to the method described by Ochi et al., J. Biol. Chem.,258, p. 5754, 1983 using a crude enzyme fraction prepared from peritoneal exudated cells of guinea pigs which were induced by intraperitoneal injection of 2% case in solution. A solution of a test drug was mixed with a reaction solution (2mM ATP, 1 mM glutathione,and the enzyme fraction in 50 mM phosphate buffer, PH 7.4) and the mixture was pre-incubated at 37° C. for 5 minutes. Calcium chloride (1 mM) and 20 μM^14 C-arachidonic acid were added to the mixture, and then the mixture was subjected to a reaction at 37° C. for 10 minutes. After the completion of the reaction, the product was immediately extracted, dissolved in chloroform/methanol (2:1), and developed by thin-layer chromatography. Radioactivity of the 5-hydroxyeicosatetraenoic acid (5-HETE) fraction was measured using a liquid scintillation counter. Inhibitory rate of each drug-treated group against 5-HETE generation was obtained in comparison with the solvent-treated control, and IC50 was calculated according to the probit method.

Data set [2] concerns auricle edema induced by arachidonic acid. Put plainly: Inhibitory activity on auricle edema induced by arachidonic acid. It counts as in vivo, ddY mice. Particulars: mouse, oral, 30 mg/kg, 1 hour after arachidonic acid. The method, then: EXPERIMENT 5: INHIBITORY ACTIVITY ON AURICLE EDEMA INDUCED BY ARACHIDONIC ACID
[…]. Dermatol. 82, p. 367, 1984. The mice were orally administered with a test drug suspended in 0 5% CMC-Na, and after one hour, 10 μl of arachidonic acid in acetone (50 mg/ml) were applied to front and back surfaces of the left auricles of each mouse. One hours later, the thicknesses of the left and right auricles were measured by means of a dial gauge, and the rate of edema of the left auricle was calculated in comparison with the right auricle (normal). Inhibitory rate of each drug-treated group against edema formation was calculated in comparison with the solvent-treated control.

In data set [3] the test system is auricle edema induced by oxazolone. As to the kind of experiment: Effect on auricle edema induced by oxazolone (delayed allergy). Particulars: mouse, oral, 10 mg/kg × 2 (30 minutes before, 6 hours after), 24 hours. In kind it is in vivo, ICR mice. The method, then:
EXPERIMENT 6: EFFECT ON AURICLE EDEMA INDUCED BY OXAZOLONE (DELAYED ALLERGY)
[…]. The mice were sensitized by the application of 0.1 ml of 0.5% oxazolone in ethanol to shaven abdominal skin. Five days later, inflammation was induced by applying 10 μl of 0.5% oxazolone in acetone to front and back surfaces Of the right auricle. After 24 hours, the thicknesses of the left and right auricles were measured by a dial gauge, and the rate of edema of the right auricle was calculated in comparison with the left auricle (normal). A test drug was suspended in 0.5% CMC--Na and orally administered twice to each mouse , i.e., 30 minutes before and 6 hours after the inflammation-inducing treatment. Inhibitory rate of each drug-treated group against edema was calculated in comparison with the solvent-treated control.

The test system of the next data set is granuloma formation. Put plainly: Inhibitory activity on granuloma formation (proliferative inflammation). In kind it is in vivo, Wistar rats. Conditions: rat, oral, 10 mg/kg every day for 8 days. The method, then:
EXPERIMENT 7: INHIBITORY ACTIVITY ON GRANULOMA FORMATION (PROLIFERATIVE INFLAMMATION)
Evaluation was carried out by using Wistar rats (120-140 g) according to the method described by Fujiyoshi et al., Nihon Yakurigaku Zasshi (Folia Pharmacologica Japonica), 87, p. 379, 1986. Back skin of the rat was lightly incised under anesthesia with pentobarbital, and filter paper discs for antibiotic assay (57 mg, 13.0.phi., Whatman) sterilized by autoclave were embedded under the skin at the both axillae. 0.1 ml of a mixture of streptomycin and penicillin G (each 1 mg/ml) was administered dropwise to the incised site and the incised skin was sutured. From the day of the disc embedment, a test drug suspended in 0.5% CMC--Na was orally administered to the rat every day for 8 days. The rat was sacrificed at the day of last administration and granuloma including the filter paper was extirpated from the circumferential tissue and dried at 110° C. overnight. The dry weight of the granuloma was measured and inhibitory rate of each drug-treated group against granulation formation was calculated in comparison with the solvent-treated control.

A further data set concerns ddY mice. Put plainly: Acute toxicity. It counts as in vivo. Conditions: mouse, oral, 600 mg/kg, observed for 2 weeks. From the text: EXPERIMENT 9: ACUTE TOXICITY
For data set [4], the system named is paw edema induced by carageenin. Put plainly: Inhibitory activity on paw edema induced by carageenin. Particulars: rat, oral, 10 mg/kg, 3 hours after carageenin. It counts as in vivo, Wistar rats. On the procedure:
EXPERIMENT 4: INHIBITORY ACTIVITY ON PAW EDEMA INDUCED BY CARAGEENIN
Wistar rats (body weight: 110-130 g) starved overnight were orally administered with a test drug suspended in 0.5% CMC-Na, and after one hour, 0.1 ml of 1% carageenin solution (picnin-A, Zushi Kagaku) was subcutaneously injected into the right hind leg paw of each rat. Three hours later, the volume of the paw was determined by means of a plethysmometer (Model 7150, Ugo Basile Co.,Ltd.) and the rate of edema was evaluated in comparison with the volume of the paw before the carageenin injection as 100%. Inhibitory rate of each drug-treated group against edema formation was calculated in comparison with the solvent-treated control.

Data set [5] concerns platelet aggregation (platelet rich plasma). As to the kind of experiment: Inhibitory activity on platelet aggregation. In kind it is cell-based, Japanese native white domestic rabbits. Conditions: Oryctolagus cuniculus, rabbit PRP, 37° C. The method, then: EXPERIMENT 8: INHIBITORY ACTIVITY ON PLATELET AGGREGATION
Blood of Japanese native white domestic rabbits was taken into a plastic centrifugal tube added with 1/10 in volume of 3.8% sodium citrate solution, and then, platelet rich plasma (PRP) containing 5 to 6×10^8 /ml platelets was obtained by centrifugation for 10 minutes. under 120×G. To 450 μl of the PRP, 25 μl of a solution containing the test drug (Compound 109) dissolved at a desired concentration was added.

As to `COc1ccc(-c2cc(-c3cc(C(C)C)cn3CC(=O)O)oc2-c2ccc(OC)cc2)cc1` [Compound 188], the half-maximal inhibitory concentration (IC50) (usually the concentration that inhibits the measured activity by half) in data set [1] worked out at 2.41 µM; at 5-lipoxygenase, 1.11 µM. Besides, the “Inhibition on Edema (%)” value is on record as 55.0% in data set [2] and 44.2% in data set [3]. Moreover, the “Inhibition on Granuloma (%)” value in the data set on granuloma formation was found to be 29.7%. Besides, in the data set with ddY mice, the “Dead Mice/Total Mice” value is listed as 4/5.

Regarding `CCc1ccc(-c2cc(-c3ccc(OC)cc3)c(-c3ccc(OC)cc3)o2)n1CC(=O)O` [Compound 109, 2,3-di-(4-methoxyphenyl)-5-(1-carboxymethyl-5-ethyl-2-pyrrolyl)furan], the IC50 is 0.85 µM on 5-lipoxygenase; 1.5 µM in data set [5] (arachidonic acid (250 μM), read-out: IC50 against platelet aggregation induced by arachidonic acid); 13.3 µM in data set [5] (collagen (5 μg/ml), read-out: IC50 against platelet aggregation induced by collagen). For the same compound, the “Inhibition on Edema (%)” value in data set [4] is reported as 49.5%; in data set [3], 46.8%. Also, the “Dead Mice/Total Mice” value in the data set with ddY mice is listed as 0/5.
